# Tests used:
# [1] = test system: ECHORC (Watergrass (Calif.)); assay: Preemergence weed control under flooded paddy conditions; type: in vivo, Echinochloa oryzoides; settings: rated 3-4 weeks after treatment
# Outline: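 Flooded-pot preemergence screen with silt loam and seeds in the upper 0.5 cm. Dose about 0.0313 to 0.500 kg/ha, delivered into flood water; visual 0-9 score after 3 to 4 weeks.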
# [2] = test system: IPOHE (Morningglory, Ivyleaf); assay: Preemergence herbicidal evaluation; type: in vivo, Ipomoea hederacea; settings: rated 4-5 weeks after treatment
# Outline: (§1)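 Scores (0–9) reflect visual comparison with control plants for stand, vigor, malformation, size and chlorosis. Compound was applied to the soil after sowing, before emergence, as an aqueous acetone spray (about 0.0156–0.500 kg/ha), and cups were kept in a greenhouse for 4–5 weeks.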
# ECHCG (Barnyardgrass) = assay: Preemergence herbicidal evaluation; type: in vivo, Echinochloa crus-galli; settings: rated 4-5 weeks after treatment
# Outline: as §1
# [3] = test system: TRZAWR (Wheat, Winter, cv Riband); assay: Preemergence herbicidal evaluation; type: in vivo, Triticum aestivum; settings: rated 4-5 weeks after treatment
# Outline: as §1
# [4] = test system: TRZAWR (Wheat, Winter, cv Riband); assay: Postemergence herbicidal evaluation; type: in vivo, Triticum aestivum; settings: postemergence
# Outline: (§2)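 Two-week-old seedlings sprayed with compound in 50/50 acetone/water plus 0.5% TWEEN 20, at about 0.0156 to 0.500 kg/ha, nozzle at 40 psi. Kept in greenhouse; rated visually 4-5 weeks after treatment on a 0-9 scale versus control, repeat tests averaged.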
# ABUTH (Velvetleaf) = assay: Postemergence herbicidal evaluation; type: in vivo, Abutilon theophrasti; settings: postemergence
# Outline: as §2
# ORYSAT (Rice, Tebonnet) = assay: Preemergence herbicidal evaluation; type: in vivo, Oryza sativa, (L.) Tebonnet; settings: rated 4-5 weeks after treatment
# Outline: as §1
# MOOVA (Monochoria) = assay: Preemergence weed control under flooded paddy conditions; type: in vivo, Monochoria vaginalis; settings: rated 3-4 weeks after treatment
# Outline: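 Seeds or propagules sown in top 0.5 cm of silt loam soil, flooded 1.5 to 3 cm above surface throughout. Compound in 50/50 v/v aqueous/acetone pipetted into flood water at about 0.0313 to 0.500 kg/ha. Visual 0-9 rating versus control after three to four weeks in greenhouse.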
# [5] = test system: IPOHE (Morningglory, Ivyleaf); assay: Postemergence herbicidal evaluation; type: in vivo, Ipomoea hederacea; settings: postemergence
# Outline: as §2
# CYPIR (Rice Flatsedge) = assay: Postemergence weed control under flooded paddy conditions; type: in vivo, Cyperus iria; settings: postemergence weeds, 3-4 weeks after treatment
# Outline: (§3)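 Weeds 3 to 5 cm tall and rice seedlings at the 1.5 to 2.5 leaf stage were flooded, with water held 1.5 to 3 cm above the soil. Compounds in 50/50 v/v aqueous/acetone went into the flood water at about 0.0313 to 0.500 kg/ha. Visual 0-9 ratings versus control were made 3 to 4 weeks later.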
# [6] = test system: CHEAL (Lambsquarters, Common); assay: Preemergence herbicidal evaluation; type: in vivo, Chenopodium album; settings: rated 4-5 weeks after treatment
# Outline: as §1
# SETVI (Foxtail, Green) = assay: Preemergence herbicidal evaluation; type: in vivo, Setaria viridis; settings: rated 4-5 weeks after treatment
# Outline: as §1
# [7] = test system: ECHORC (Watergrass (Calif.)); assay: Postemergence weed control under flooded paddy conditions; type: in vivo, Echinochloa oryzoides; settings: postemergence weeds, 3-4 weeks after treatment
# Outline: as §3
smiles,measurement,setting,value
CCOC(=O)CN1C(=O)C(CC(=O)O)S/C1=N/c1cc(-n2c(=O)cc(C(F)(F)F)n(C)c2=O)c(F)cc1Cl (stereo not shown) [Compound 16],Herbicidal rating ECHORC,[1]; 0.0313 kg/ha,0.0
same,Herbicidal rating ECHORC,[1]; 0.0625 kg/ha,0.0
same,Herbicidal rating ECHORC,[1]; 0.1250 kg/ha,0.0
same,Herbicidal rating ECHORC,[1]; 0.2500 kg/ha,0.0
same,IPOHE preemergence herbicidal rating,[2]; rate 0.0156 kg/ha,0.9
same,IPOHE preemergence herbicidal rating,[2]; rate 0.0313 kg/ha,3.5
same,IPOHE preemergence herbicidal rating,[2]; rate 0.0625 kg/ha,7.6
same,IPOHE preemergence herbicidal rating,[2]; rate 0.1250 kg/ha,8.7
same,IPOHE preemergence herbicidal rating,[2]; rate 0.2500 kg/ha,9.0
same,IPOHE preemergence herbicidal rating,[2]; rate 0.5000 kg/ha,9.0
same,ECHCG preemergence herbicidal rating,ECHCG (Barnyardgrass); rate 0.0156 kg/ha,0.0
same,ECHCG preemergence herbicidal rating,ECHCG (Barnyardgrass); rate 0.0313 kg/ha,0.3
same,ECHCG preemergence herbicidal rating,ECHCG (Barnyardgrass); rate 0.0625 kg/ha,0.6
same,ECHCG preemergence herbicidal rating,ECHCG (Barnyardgrass); rate 0.1250 kg/ha,1.8
same,ECHCG preemergence herbicidal rating,ECHCG (Barnyardgrass); rate 0.2500 kg/ha,4.4
same,ECHCG preemergence herbicidal rating,ECHCG (Barnyardgrass); rate 0.5000 kg/ha,7.1
same,TRZAWR preemergence herbicidal rating,[3]; rate 0.0156 kg/ha,0.1
same,TRZAWR preemergence herbicidal rating,[3]; rate 0.0313 kg/ha,0.5
same,TRZAWR preemergence herbicidal rating,[3]; rate 0.0625 kg/ha,0.5
same,TRZAWR preemergence herbicidal rating,[3]; rate 0.1250 kg/ha,0.8
same,TRZAWR preemergence herbicidal rating,[3]; rate 0.2500 kg/ha,2.6
same,TRZAWR preemergence herbicidal rating,[3]; rate 0.5000 kg/ha,5.8
same,TRZAWR herbicidal rating,[4]; rate 0.0157 kg/ha,7.5
same,TRZAWR herbicidal rating,[4]; rate 0.0313 kg/ha,6.5
same,TRZAWR herbicidal rating,[4]; rate 0.0625 kg/ha,7.5
same,TRZAWR herbicidal rating,[4]; rate 0.1250 kg/ha,7.9
same,TRZAWR herbicidal rating,[4]; rate 0.2500 kg/ha,8.5
same,ABUTH herbicidal rating,ABUTH (Velvetleaf); rate 0.0157 kg/ha,9.0
same,ABUTH herbicidal rating,ABUTH (Velvetleaf); rate 0.0313 kg/ha,9.0
same,ABUTH herbicidal rating,ABUTH (Velvetleaf); rate 0.0625 kg/ha,9.0
same,ABUTH herbicidal rating,ABUTH (Velvetleaf); rate 0.1250 kg/ha,9.0
same,ABUTH herbicidal rating,ABUTH (Velvetleaf); rate 0.2500 kg/ha,9.0
same,ORYSAT preemergence herbicidal rating,"ORYSAT (Rice, Tebonnet); rate 0.0156 kg/ha",0.1
same,ORYSAT preemergence herbicidal rating,"ORYSAT (Rice, Tebonnet); rate 0.0313 kg/ha",0.3
same,ORYSAT preemergence herbicidal rating,"ORYSAT (Rice, Tebonnet); rate 0.0625 kg/ha",1.0
same,ORYSAT preemergence herbicidal rating,"ORYSAT (Rice, Tebonnet); rate 0.1250 kg/ha",2.2
same,ORYSAT preemergence herbicidal rating,"ORYSAT (Rice, Tebonnet); rate 0.2500 kg/ha",4.3
same,ORYSAT preemergence herbicidal rating,"ORYSAT (Rice, Tebonnet); rate 0.5000 kg/ha",6.4
same,Herbicidal rating MOOVA,MOOVA (Monochoria); 0.0313 kg/ha,9.0
same,Herbicidal rating MOOVA,MOOVA (Monochoria); 0.0625 kg/ha,9.0
same,Herbicidal rating MOOVA,MOOVA (Monochoria); 0.1250 kg/ha,9.0
same,Herbicidal rating MOOVA,MOOVA (Monochoria); 0.2500 kg/ha,3.0
same,IPOHE herbicidal rating,[5]; rate 0.0157 kg/ha,9.0
same,IPOHE herbicidal rating,[5]; rate 0.0313 kg/ha,9.0
same,IPOHE herbicidal rating,[5]; rate 0.0625 kg/ha,9.0
same,IPOHE herbicidal rating,[5]; rate 0.1250 kg/ha,9.0
same,IPOHE herbicidal rating,[5]; rate 0.2500 kg/ha,9.0
same,Herbicidal rating CYPIR,CYPIR (Rice Flatsedge); rate 0.0313 kg/ha,0.0
same,Herbicidal rating CYPIR,CYPIR (Rice Flatsedge); rate 0.0625 kg/ha,0.0
same,Herbicidal rating CYPIR,CYPIR (Rice Flatsedge); rate 0.1250 kg/ha,4.0
same,Herbicidal rating CYPIR,CYPIR (Rice Flatsedge); rate 0.2500 kg/ha,9.0
same,CHEAL preemergence herbicidal rating,[6]; rate 0.0156 kg/ha,5.7
same,CHEAL preemergence herbicidal rating,[6]; rate 0.0313 kg/ha,8.4
same,CHEAL preemergence herbicidal rating,[6]; rate 0.0625 kg/ha,8.8
same,CHEAL preemergence herbicidal rating,[6]; rate 0.1250 kg/ha,9.0
same,CHEAL preemergence herbicidal rating,[6]; rate 0.2500 kg/ha,9.0
same,CHEAL preemergence herbicidal rating,[6]; rate 0.5000 kg/ha,9.0
same,SETVI preemergence herbicidal rating,"SETVI (Foxtail, Green); rate 0.0156 kg/ha",0.2
same,SETVI preemergence herbicidal rating,"SETVI (Foxtail, Green); rate 0.0313 kg/ha",1.0
same,SETVI preemergence herbicidal rating,"SETVI (Foxtail, Green); rate 0.0625 kg/ha",3.7
same,SETVI preemergence herbicidal rating,"SETVI (Foxtail, Green); rate 0.1250 kg/ha",7.5
same,SETVI preemergence herbicidal rating,"SETVI (Foxtail, Green); rate 0.2500 kg/ha",8.5
same,SETVI preemergence herbicidal rating,"SETVI (Foxtail, Green); rate 0.5000 kg/ha",8.9
same,Herbicidal rating ECHORC,[7]; rate 0.0313 kg/ha,0.0
same,Herbicidal rating ECHORC,[7]; rate 0.0625 kg/ha,0.0
same,Herbicidal rating ECHORC,[7]; rate 0.1250 kg/ha,0.0
same,Herbicidal rating ECHORC,[7]; rate 0.2500 kg/ha,0.0

# Reference: patent US20020137929A1, “1 - (3-heterocyclylphenyl) isothiourea, -isourea, -guanidine and -amidine herbicidal agents” (Intellectual Property Department, BASF Aktiengesellschaft, priority 1998, published 2002)
